Laboratory results reported in patent publication US7927600B2, “Anti-allergic pharmaceutical composition containing at least one allergen and at least one antihistamine compound” (priority 2001, dated 2011).

Test system: allergic patients
Test: Example 4: adverse effects
Type: in vivo, human
Conditions: patients of Example 4

Question: How did the “Adverse Effects, Conclusion (frequency)” value turn out when `CCOc1c(N)c2c(c(OCC)c1OCC)C(C1c3c(cc4c(c3OC)OCO4)CCN1C)OC2=O` (stereo not shown) [Hypostamine, tritoqualine] was run?
Answer: Very rare
